In the NIST ThermoML archive (doi:10.1021/je300405a):

Details: Liquid; for speed of sound: Pulse-echo method; for mass density: Vibrating tube method

CCCCCCCCCC(=O)OCC [ethyl decanoate]
Details	mass density [kg/m3]	speed of sound [m/s]
283.15 K, 101.3 kPa	–	1352.7
283.15 K, 10000 kPa	–	1398.5
283.15 K, 20000 kPa	–	1442.3
283.15 K, 30000 kPa	–	1483.7
283.15 K, 40000 kPa	–	1522.5
283.15 K, 50000 kPa	–	1558.3
283.15 K, 60000 kPa	–	1593.9
283.15 K, 70000 kPa	–	1627
283.15 K, 80000 kPa	–	1658.8
283.15 K, 90000 kPa	–	1689.9
283.15 K, 100000 kPa	–	1720.7
283.15 K, 110000 kPa	–	1753.7
283.15 K, 120000 kPa	–	1781.4
283.15 K, 130000 kPa	–	1808.5
283.15 K, 140000 kPa	–	1834.6
283.15 K, 150000 kPa	–	1860.3
283.15 K, 170000 kPa	–	1908.7
283.15 K, 190000 kPa	–	1951.8
283.15 K, 210000 kPa	–	1998
293.15 K, 101.3 kPa	863.82	–
293.15 K, 10000 kPa	870.79	–
293.15 K, 20000 kPa	877.08	–
293.15 K, 30000 kPa	882.99	–
293.15 K, 40000 kPa	888.58	–
293.15 K, 50000 kPa	893.79	–
293.15 K, 60000 kPa	898.83	–
293.15 K, 70000 kPa	903.51	–
293.15 K, 80000 kPa	907.69	–
293.15 K, 90000 kPa	912.24	–
293.15 K, 100000 kPa	916.37	–
303.15 K, 101.3 kPa	855.53	1275
303.15 K, 10000 kPa	863.17	1325.7
303.15 K, 20000 kPa	869.73	1373.2
303.15 K, 30000 kPa	875.81	1416.8
303.15 K, 40000 kPa	881.53	1458.3
303.15 K, 50000 kPa	887	1498
303.15 K, 60000 kPa	892.12	1535.5
303.15 K, 70000 kPa	897.09	1569.9
303.15 K, 80000 kPa	901.73	1603.2
303.15 K, 90000 kPa	906.27	1635.3
303.15 K, 100000 kPa	910.56	1666.2
303.15 K, 110000 kPa	–	1696.2
303.15 K, 120000 kPa	–	1724.8
303.15 K, 130000 kPa	–	1752.9
303.15 K, 140000 kPa	–	1779.2
303.15 K, 150000 kPa	–	1805.4
303.15 K, 170000 kPa	–	1854.6
303.15 K, 190000 kPa	–	1902.4
303.15 K, 210000 kPa	–	1947.7
313.15 K, 101.3 kPa	847.99	–
313.15 K, 10000 kPa	855.19	–
313.15 K, 20000 kPa	862	–
313.15 K, 30000 kPa	868.5	–
313.15 K, 40000 kPa	874.4	–
313.15 K, 50000 kPa	880	–
313.15 K, 60000 kPa	885.4	–
313.15 K, 70000 kPa	890.5	–
313.15 K, 80000 kPa	895.4	–
313.15 K, 90000 kPa	900	–
313.15 K, 100000 kPa	904.4	–
323.15 K, 101.3 kPa	839.75	1203.1
323.15 K, 10000 kPa	847.49	1258.2
323.15 K, 20000 kPa	854.78	1309.5
323.15 K, 30000 kPa	861.46	1355.9
323.15 K, 40000 kPa	867.52	1399.1
323.15 K, 50000 kPa	873.23	1439.4
323.15 K, 60000 kPa	879.07	1478.4
323.15 K, 70000 kPa	884.28	1515.1
323.15 K, 80000 kPa	889.28	1550.3
323.15 K, 90000 kPa	894.05	1583.7
323.15 K, 100000 kPa	898.41	1615.7
323.15 K, 110000 kPa	–	1645.8
323.15 K, 120000 kPa	–	1676.7
323.15 K, 130000 kPa	–	1705.7
323.15 K, 140000 kPa	–	1733.7
323.15 K, 150000 kPa	–	1760.3
323.15 K, 170000 kPa	–	1811.6
323.15 K, 190000 kPa	–	1861.2
323.15 K, 210000 kPa	–	1909.8
333.15 K, 101.3 kPa	831.19	–
333.15 K, 10000 kPa	839.38	–
333.15 K, 20000 kPa	846.93	–
333.15 K, 30000 kPa	853.95	–
333.15 K, 40000 kPa	860.39	–
333.15 K, 50000 kPa	866.43	–
333.15 K, 60000 kPa	872.17	–
333.15 K, 70000 kPa	877.53	–
333.15 K, 80000 kPa	882.56	–
333.15 K, 90000 kPa	887.46	–
333.15 K, 100000 kPa	892.18	–
343.15 K, 101.3 kPa	822.9	1133.3
343.15 K, 10000 kPa	831.45	1192.8
343.15 K, 20000 kPa	839.59	1247
343.15 K, 30000 kPa	846.94	1297.2
343.15 K, 40000 kPa	853.75	1343
343.15 K, 50000 kPa	860.03	1385.7
343.15 K, 60000 kPa	865.88	1425.7
343.15 K, 70000 kPa	871.46	1463.9
343.15 K, 80000 kPa	876.76	1500.3
343.15 K, 90000 kPa	881.86	1535.3
343.15 K, 100000 kPa	886.72	1568.4
343.15 K, 110000 kPa	–	1600.4
343.15 K, 120000 kPa	–	1631.5
343.15 K, 130000 kPa	–	1661.5
343.15 K, 140000 kPa	–	1690
343.15 K, 150000 kPa	–	1717.3
343.15 K, 170000 kPa	–	1769.7
343.15 K, 190000 kPa	–	1818.5
343.15 K, 210000 kPa	–	1865
353.15 K, 101.3 kPa	814.4	–
353.15 K, 10000 kPa	823.62	–
353.15 K, 20000 kPa	832.14	–
353.15 K, 30000 kPa	839.63	–
353.15 K, 40000 kPa	846.7	–
353.15 K, 50000 kPa	853.22	–
353.15 K, 60000 kPa	859.34	–
353.15 K, 70000 kPa	865.16	–
353.15 K, 80000 kPa	870.61	–
353.15 K, 90000 kPa	875.77	–
353.15 K, 100000 kPa	880.75	–
363.15 K, 101.3 kPa	806.38	1065.9
363.15 K, 10000 kPa	815.94	1130.1
363.15 K, 20000 kPa	824.71	1188.5
363.15 K, 30000 kPa	832.73	1241.2
363.15 K, 40000 kPa	840.08	1289.6
363.15 K, 50000 kPa	846.82	1334.7
363.15 K, 60000 kPa	853.11	1376.5
363.15 K, 70000 kPa	859.26	1415.4
363.15 K, 80000 kPa	864.82	1452.8
363.15 K, 90000 kPa	870.11	1488.9
363.15 K, 100000 kPa	875.14	1522.8
363.15 K, 110000 kPa	–	1556
363.15 K, 120000 kPa	–	1586.9
363.15 K, 130000 kPa	–	1617.1
363.15 K, 140000 kPa	–	1646.6
363.15 K, 150000 kPa	–	1675.1
363.15 K, 170000 kPa	–	1727.6
363.15 K, 190000 kPa	–	1777
363.15 K, 210000 kPa	–	1824.5
373.15 K, 101.3 kPa	797.32	–
373.15 K, 10000 kPa	807.87	–
373.15 K, 20000 kPa	817.14	–
373.15 K, 30000 kPa	825.49	–
373.15 K, 40000 kPa	833.44	–
373.15 K, 50000 kPa	840.48	–
373.15 K, 60000 kPa	847.06	–
373.15 K, 70000 kPa	853.14	–
373.15 K, 80000 kPa	859.2	–
373.15 K, 90000 kPa	864.65	–
373.15 K, 100000 kPa	869.76	–
383.15 K, 101.3 kPa	789.45	1001.3
383.15 K, 10000 kPa	800.55	1071.1
383.15 K, 20000 kPa	810.35	1132.9
383.15 K, 30000 kPa	819.06	1188.3
383.15 K, 40000 kPa	826.96	1239.3
383.15 K, 50000 kPa	834.28	1286.4
383.15 K, 60000 kPa	841.17	1329.7
383.15 K, 70000 kPa	847.62	1370.2
383.15 K, 80000 kPa	853.58	1408.3
383.15 K, 90000 kPa	859.32	1445
383.15 K, 100000 kPa	864.87	1480
383.15 K, 110000 kPa	–	1513.4
383.15 K, 120000 kPa	–	1545.8
383.15 K, 130000 kPa	–	1576.6
383.15 K, 140000 kPa	–	1606.2
383.15 K, 150000 kPa	–	1634.6
383.15 K, 170000 kPa	–	1687.7
383.15 K, 190000 kPa	–	1740.7
383.15 K, 210000 kPa	–	1786.8
393.15 K, 101.3 kPa	780.85	–
393.15 K, 10000 kPa	792.15	–
393.15 K, 20000 kPa	802.27	–
393.15 K, 30000 kPa	811.47	–
393.15 K, 40000 kPa	819.79	–
393.15 K, 50000 kPa	827.43	–
393.15 K, 60000 kPa	834.45	–
393.15 K, 70000 kPa	840.99	–
393.15 K, 80000 kPa	847.2	–
393.15 K, 90000 kPa	852.99	–
393.15 K, 100000 kPa	858.42	–
403.15 K, 101.3 kPa	–	937.8
403.15 K, 10000 kPa	–	1013.4
403.15 K, 20000 kPa	–	1080.3
403.15 K, 30000 kPa	–	1138.6
403.15 K, 40000 kPa	–	1191.3
403.15 K, 50000 kPa	–	1240.5
403.15 K, 60000 kPa	–	1285.9
403.15 K, 70000 kPa	–	1328.1
403.15 K, 80000 kPa	–	1367.6
403.15 K, 90000 kPa	–	1404.6
403.15 K, 100000 kPa	–	1439.8
403.15 K, 110000 kPa	–	1473.4
403.15 K, 120000 kPa	–	1506.4
403.15 K, 130000 kPa	–	1537.5
403.15 K, 140000 kPa	–	1567.3
403.15 K, 150000 kPa	–	1596.2
403.15 K, 170000 kPa	–	1650.9
403.15 K, 190000 kPa	–	1702.8
403.15 K, 210000 kPa	–	1751.8
